This note sets out measurements from patent US11753430B2, “Method of making cobalt compounds for feed supplements” (Vitalix, Inc., priority 2021, dated 2023).

A short description of the data set: surface area of crystals formed with and without sonication. It counts as physicochemical. The protocol: The method can also include a step of forming a premix, including the substeps of adding, after the step of dissolving, gluconic acid to provide an almost 1:1 premix mixture of cobalt acetate and cobalt gluconate compounds, and then sonicating the premix mixture. The premix remained in solution at 15° C. for over ten days. When additional gluconic acid (1.1 eq of total gluconic acid to acetic acid) was added, and gently mixed, within a half hour precipitation of very fine cobalt gluconate crystals occurred.

Turning to cobalt gluconate, the “surface area relative to that observed with sonication” value is on record as “less than 20 times”.
